We go through 80 compounds from the METLIN SMRT retention time set (Domingo-Almenara et al. 2019).

This data set in a line: gradient 5% acetonitrile 3 min, to 50% in 2 min, to 85% in 15 min, held 3 min, 100 µL/min. As to conditions: column: Zorbax Extend-C18 2.1 x 50 mm; eluents: water / acetonitrile, 0.1% formic acid. Summed up: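 Values are retention times taken from adduct peaks that software picked and an analyst inspected. The pure standards were run as mixtures of ~100 molecules on HPLC linked to a quadrupole time-of-flight mass spectrometer, in positive and negative ionization mode. A Zorbax Extend-C18 column (2.1 × 50 mm, 1.8 μm) was used at 100 μL/min with water and acetonitrile, each including 0.1% formic acid.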
Turning to `CN(CC#N)C(=O)c1ccc2c(c1)CCN2C(=O)C1CC1`, the RP-LC retention time was determined as 680 s.

With `COCc1nc(C2CCN(C(=O)c3ccco3)C2)no1` (stereo not given), the RP-LC retention time amounted to 648 s.

For the compound `CCN1C(=O)COc2ccc(-c3noc(-c4cc(C)cc(C)c4)n3)cc21`, the RP-LC retention time was 1330 s.

`CS(=O)(=O)Nc1ccc(N2CCCCS2(=O)=O)cc1`: the RP-LC retention time is 615 s.

In turn, `Cc1cc(C)n(-c2cc(NCCNC(=O)c3c[nH]c4ccccc34)nc(C)n2)n1` came in with an RP-LC retention time of 630 s.

In the case of `CSc1ccc(CCNC(=O)c2ccc3c(c2)nc(C)c(=O)n3C)cc1`, the RP-LC retention time was found to be 765 s.

As to `CCCNC(=O)CN1c2ccc(F)cc2-c2ccccc2S1(=O)=O`, the RP-LC retention time was 824 s.

With `COc1ccc(-c2csc(NC(=O)/C=C/C(=O)O)n2)cc1`, the RP-LC retention time is 752 s.

`CC(=O)N1CCC2(CC1)CC(CC(=O)NCc1ccc(C)o1)CCO2` (stereo not given): the RP-LC retention time is 625 s.

Consider `Cc1cc(C)cc(NC(=O)Cn2c(N3CCC(C)CC3)nc(C)cc2=O)c1`, for which the RP-LC retention time was found to be 796 s.

As to `CC1CCCCN1CCCNC(=O)CCCN1C(=O)CCn2nc(-c3cccn3C)cc21` (stereo not given), the RP-LC retention time amounted to 545 s.

`COc1ccc(NS(=O)(=O)c2cn(CC(C)C)c3ncccc23)cc1F` came in with an RP-LC retention time of 896 s.

Compound `CCc1nnc(-c2ccc3ccn(CC(=O)N4CCN(c5cccc(Cl)c5)CC4)c3c2)o1` yielded an RP-LC retention time of 987 s.

`CCCN(C(=O)C1CCC(C)CC1)c1nc(-c2ccccc2)cs1` (stereo not given): the RP-LC retention time was found to be 748 s.

For the compound `CCOC(=O)c1csc(NC(=O)CCS(=O)(=O)c2ccc(OC)cc2)n1`, the RP-LC retention time was 700 s.

`O=C(Nc1ccc(OCc2nnc(-c3ccc(Cl)cc3)o2)cc1)c1ccoc1`: the RP-LC retention time was 942 s.

`CCCNC(=O)C1CCN(c2ccc(SCC(=O)Nc3ccc(F)cc3Cl)nn2)CC1` yielded an RP-LC retention time of 682 s.

For `Cc1cccc(Nc2nc(C)c(C(=O)NC3CCN(Cc4ccccc4)CC3)s2)n1`, the RP-LC retention time was 645 s.

Compound `Cc1ccc(F)c(NS(=O)(=O)c2cc3c(s2)CCN(C(=O)C2CC2)C3)c1` returned an RP-LC retention time of 848 s.

For the compound `Cc1ccc(NC(=O)c2cc(C(C)C)n3nccc3n2)cc1C`, the RP-LC retention time turned out to be 1250 s.

In the case of `Cc1cc(C)n(CC(=O)N2CCCCC2c2nc(C3CC3)no2)n1` (stereo not given), the RP-LC retention time came out at 741 s.

Regarding `Nc1ncnc(NCc2ccco2)c1[N+](=O)[O-]`, the RP-LC retention time turned out to be 643 s.

Compound `COc1ccc(C(=O)N2CCC3(CC2)NC(=O)c2ccc(Cl)cc2N3)c(C)c1` yielded an RP-LC retention time of 800 s.

As for `CC(C)N1CCN(C(=O)CC2Sc3ncccc3N(C)C2=O)CC1` (stereo not given), the RP-LC retention time was determined as 570 s.

`Cc1cc(C2CCCN2C(=O)Cc2cccc(F)c2)no1` (stereo not given) returned an RP-LC retention time of 790 s.

`COCc1noc([C@@H]2CN(C(=O)c3ccc(Cl)s3)C[C@H]2C(N)=O)n1`: the RP-LC retention time was found to be 676 s.

`O=S(=O)(NCC#CCN1CCc2ccccc2C1)c1cccs1` yielded an RP-LC retention time of 558 s.

`CCC(=O)N(C)CCc1noc(-c2ccc(C(=O)NCCCOC)cc2)n1` returned an RP-LC retention time of 650 s.

`CCc1cccc(NS(=O)(=O)c2cc3n(c2)CCCN(CC)C3=O)c1` registered an RP-LC retention time of 756 s.

Consider `CN(C)c1cccc(C(=O)NC2CCN(c3cc(-c4ccc(Cl)cc4)[nH]n3)C2)c1` (stereo not given), for which the RP-LC retention time was determined as 865 s.

On to `CC(C)Oc1ccc(-c2noc(Cn3c(=O)n(Cc4ccccc4)c(=O)c4sccc43)n2)cc1`, for which the RP-LC retention time amounted to 1170 s.

`Cc1ccccc1C(=O)N1CCC2(C1)C(=O)Nc1ccccc12` (stereo not given): the RP-LC retention time is 703 s.

Regarding `O=C(NCCOc1ccc(-c2ccccn2)nn1)c1cccs1`, the RP-LC retention time was determined as 586 s.

Consider `COCCn1ncc(N2CCC(C(=O)NCc3ccc(C)o3)C2)cc1=O` (stereo not given), for which the RP-LC retention time was determined as 650 s.

Compound `CCCN1CCN(C(=O)c2ccc(S(=O)(=O)c3ccccc3)s2)CC1` displayed an RP-LC retention time of 630 s.

`Cc1[nH]c(C)c(S(=O)(=O)N2CCN(c3ccccn3)CC2)c1C(=O)N1CCCCC1` registered an RP-LC retention time of 606 s.

With `Fc1ccc(C(c2nnc(-c3ccccc3)o2)N2CCN(c3ccccn3)CC2)c(Cl)c1` (stereo not given), the RP-LC retention time was 978 s.

In turn, `O=C([C@@H]1C[C@H](F)CN1S(=O)(=O)c1cc(F)cc(F)c1)N1CCCCC1` returned an RP-LC retention time of 837 s.

Regarding `O=C(Nc1ccc(N2CCN(c3ccccc3)C2=O)nc1)c1ccccc1`, the RP-LC retention time is 906 s.

`NC(=O)c1cccc(Nc2c(-c3ccc(Cl)cc3)nc3cnccn23)c1` had an RP-LC retention time of 685 s.

For `COc1ccc(NC(=O)Cn2nc3c(Oc4cccc(F)c4)nccn3c2=O)cc1`, the RP-LC retention time was found to be 814 s.

In the case of `COc1cccc(Cn2c(C(=O)N3CCC(C(=O)NC4CCCCC4)CC3)cc3ccsc32)c1`, the RP-LC retention time stood at 1000 s.

Regarding `Cc1nn(C)c(C)c1C(C)NC(=O)CCC1CCCN(c2cc(NC3CC3)ncn2)C1` (stereo not given), the RP-LC retention time stood at 594 s.

`CC(C)N1CCN(C(=O)C2CC(=O)N(CCc3ccccc3)C2)CC1` (stereo not given) registered an RP-LC retention time of 573 s.

Consider `Cc1c(-c2noc(-c3ccccc3F)n2)nnn1Cc1cccc(F)c1`, for which the RP-LC retention time is 1050 s.

With `CCC(=O)NCc1nc2c(n1C)CN(S(=O)(=O)c1c(C)c(C)cc(C)c1C)CC2`, the RP-LC retention time amounted to 556 s.

`COc1ccc(-c2cc3n(n2)CCCN(C(C)=O)C3)cc1` yielded an RP-LC retention time of 656 s.

The compound `CC1=C(c2ccccc2)S(=O)(=O)N=C1N1CCCN(C(=O)Nc2cccc(C#N)c2)CC1` registered an RP-LC retention time of 814 s.

Take `Cc1ccccc1OCC(=O)NCCN1CCN(S(C)(=O)=O)CC1`: the RP-LC retention time was found to be 558 s.

In turn, `O=C(NC1CCN(c2cc(-c3ccc(F)cc3)[nH]n2)C1)c1ccncc1` (stereo not given) displayed an RP-LC retention time of 611 s.

`COc1ccc(NC(=O)C2CCCN(c3nc4ccccc4nc3OC)C2)cc1OC` (stereo not given) had an RP-LC retention time of 982 s.

As to `Cc1cccc(N2CCN(C(=O)C3CCCN(c4nc5ccccc5n5cccc45)C3)CC2)c1C` (stereo not given), the RP-LC retention time was 977 s.

`CC(=O)c1cccc(NC(=O)Cn2c(-c3ccccc3)nc(C)cc2=O)c1` came in with an RP-LC retention time of 912 s.

On to `Cc1cc(C)cc(S(=O)(=O)N2CCC(C(=O)NCc3csc(-c4cccs4)n3)CC2)c1`, for which the RP-LC retention time turned out to be 967 s.

`CCN(CC)C(=O)N1CCCC(Cc2nncn2-c2ccccc2)C1` (stereo not given) returned an RP-LC retention time of 628 s.

As for `CCOC(=O)C1CCN(C(c2ccc(C)cc2)c2c(O)cc(C)n(CC)c2=O)CC1` (stereo not given), the RP-LC retention time was determined as 725 s.

Regarding `O=c1n(Cc2cccc(C(F)(F)F)c2)nc2c(S(=O)(=O)N3CCCCC3)cccn12`, the RP-LC retention time was determined as 993 s.

Compound `COc1ccc(NC(=O)c2cn(C)nc2S(=O)(=O)N2CCSCC2)cc1` came in with an RP-LC retention time of 848 s.

`CCOc1ccc(C(=O)NCc2noc(-c3cccc(Cl)c3)n2)cc1` had an RP-LC retention time of 963 s.

Take `CC1=CC(=O)CC(C)(C)C1(O)/C=C/C(C)=C\C(=O)O` (stereo not given): the RP-LC retention time is 683 s.

`CCCn1c(CCNC(=O)c2cccc(F)c2)nc2cccnc21` came in with an RP-LC retention time of 644 s.

Take `CCc1cc(=O)n(Cc2ccccc2C#N)c(N2CCCC2)n1`: the RP-LC retention time turned out to be 696 s.

In turn, `CN(CCCNC(=O)Cn1c(=O)c2cccn2c2ccccc21)Cc1ccccc1` returned an RP-LC retention time of 631 s.

`CCOc1ccc(NC(=O)CCC2CCCN(c3cc(NC4CC4)ncn3)C2)cc1` (stereo not given) registered an RP-LC retention time of 692 s.

On to `Cc1c(Cl)cccc1NC(=O)Cn1c(=O)cc(-c2nc(C(C)C)no2)c2ccccc21`, for which the RP-LC retention time amounted to 1080 s.

Turning to `COc1ccccc1-c1nc2cnccn2c1NCCC(=O)N(C)C`, the RP-LC retention time was determined as 596 s.

On to `Cc1ccc(Cc2nc(-c3cccc(-c4ccn[nH]4)c3)no2)cc1`, for which the RP-LC retention time is 999 s.

As for `CCOc1nn(CC)cc1-c1nnc(SCC(=O)N2CCCc3ccccc32)n1CC`, the RP-LC retention time is 734 s.

In turn, `COc1ccccc1-c1nc(Cc2noc(Cc3ccc(F)cc3)n2)c(C)o1` displayed an RP-LC retention time of 1000 s.

Compound `O=C(Nc1cccn2c(C3CCC3)nnc12)C1COc2ccccc2O1` (stereo not given) had an RP-LC retention time of 837 s.

In turn, `COc1ccc(F)c(F)c1C(=O)c1cnc(NC2CCN(S(C)(=O)=O)CC2)nc1N` showed an RP-LC retention time of 784 s.

Compound `Cc1ncsc1CN1CC(c2ncc(C)n2Cc2ccccc2)C1` had an RP-LC retention time of 559 s.

For `Cc1cc(C)cc(Oc2nccn3c(=O)n(CC(=O)Nc4cc(Cl)ccc4C)nc23)c1`, the RP-LC retention time is 1050 s.

`Fc1cccc(CSc2ccc(-c3ccc4c(c3)OCO4)nn2)c1` came in with an RP-LC retention time of 1020 s.

In the case of `Cc1ccc(-n2nnnc2CNC(=O)COc2ccc(Cl)cc2Cl)cc1C`, the RP-LC retention time was 931 s.

For the compound `CC(C)OC(=O)c1ncoc1-c1ccccc1C(=O)N1CCN(C2CCCCC2)CC1`, the RP-LC retention time was found to be 638 s.

In turn, `O=C(Nc1ccc(-c2nc3ccccc3o2)cc1)c1ccc(S(=O)(=O)N2CCCC2)cc1` gave an RP-LC retention time of 1000 s.

`Cc1ccc2c(c1)N(Cc1nc(-c3cccc(Br)c3)no1)C(=O)CO2` showed an RP-LC retention time of 1180 s.

The compound `Cn1c(-c2ccccc2)nn(CCNC(=O)c2cc3ccccc3o2)c1=O` returned an RP-LC retention time of 694 s.

Compound `CC(C)c1ccc(NC(=O)Cn2cnc3nc4c(cc3c2=O)CCCC4)cc1` returned an RP-LC retention time of 762 s.
